From patent US10233182B2, “Substituted spirocyclic inhibitors of autotaxin” (X-Rx, Inc., priority 2014, dated 2019) come the findings set out here.

Structures can show the parent of a compound that is named as a salt.

The assay concerns the target Autotaxin (Homo sapiens (Human), UniProt Q13822). Kind of assay: Autotaxin LPC Cascade Assay. The class given is biochemical. As to conditions: Autotaxin 5 nM, LPC 100 μM, choline oxidase/HRP/Ampliflu Red fluorescence read-out, 2% DMSO, RT; read-out: IC50 ATX Activity. The procedure, abridged:
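Choline liberated from LPC by autotaxin during 1 h, after a 10-min RT compound preincubation, was converted through choline oxidase/HRP to a fluorescent Ampliflu Red product.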
With `CN1C(=O)N(c2ccc3[nH]ncc3c2)C2(CCN(C(=O)C3(NC(=O)c4cc(C(F)(F)F)ccc4F)CC3)CC2)C1=O` [Example 71, N-(1-(1-(1H-Indazol-5-yl)-3-methyl-2,4-dioxo-1,3,8-triazaspiro[4.5]decane-8-carbonyl)cyclopropyl)-2-fluoro-5-(trifluoromethyl)benzamide], the IC50 was no less than 1000 nM. On to `CC(C)[C@@H](NC(=O)C(C)(C)C)C(=O)N1CCC2(CC1)C(=O)N(C)C(=O)N2c1ccc2[nH]ncc2c1` [Example 232, (R)—N-(1-(1-(1H-Indazol-5-yl)-3-methyl-2,4-dioxo-1,3,8-triazaspiro[4.5]decan-8-yl)-3-methyl-1-oxobutan-2-yl)pivalamide], for which the IC50 is no less than 1000 nM. Then `CCc1ccc(F)c(C(=O)N[C@@H](C(=O)N2CCC3(CC2)C(=O)N(C)C(=O)N3c2ccc(OC)cc2)[C@@H](C)OC)c1` [Example 40, 5-Ethyl-2-fluoro-N-((2R,3R)-3-methoxy-1-(1-(4-methoxyphenyl)-3-methyl-2,4-dioxo-1,3,8-triazaspiro[4.5]decan-8-yl)-1-oxobutan-2-yl)benzamide], with less than 500 nM; and `Cc1nc2ccc(CN3C(=O)N(C)C(=O)C34CCN(C(=O)[C@H](NC(=O)c3cc(C(F)(F)F)ccc3F)C(C)C)CC4)cc2[nH]1` [Example 106, (R)-2-Fluoro-N-(3-methyl-1-(3-methyl-1-((2-methyl-1H-benzo[d]imidazol-6-yl)methyl)-2,4-dioxo-1,3,8-triazaspiro[4.5]decan-8-yl)-1-oxobutan-2-yl)-5-(trifluoromethyl)benzamide], with no less than 1000 nM. For `Cc1nc2ccc(N3C(=O)N(C)C(=O)C34CCN(C(=O)[C@H](NC(=O)c3cc(C(F)(F)F)ccc3F)C(C)C)CC4)cc2[nH]1` [Example 19, (R)-2-Fluoro-N-(3-methyl-1-(3-methyl-1-(2-methyl-1H-benzo[d]imidazol-6-yl)-2,4-dioxo-1,3,8-triazaspiro[4.5]decan-8-yl)-1-oxobutan-2-yl)-5-(trifluoromethyl)benzamide trifluoroacetic Acid Salt], the IC50 was no less than 1000 nM. Under `Cc1cccc(C(=O)N[C@@H](C(=O)N2CCC3(CC2)C(=O)N(C)CN3c2ccc(C(=O)O)cc2)C(C)C)c1F` [Example 150, (R)-4-(8-(2-(2-Fluoro-3-methylbenzamido)-3-methylbutanoyl)-3-methyl-4-oxo-1,3,8-triazaspiro[4.5]decan-1-yl)benzoic Acid] stands less than 500 nM. On to `CC(C)[C@@H](NC(=O)c1cc(C(F)(F)F)ccc1F)C(=O)N1CCC2(CC1)C(=O)N(C)C(=O)N2c1ccc(S(C)(=O)=O)cc1` [Example 9, (R)-2-Fluoro-N-(3-methyl-1-(3-methyl-1-(4-(methylsulfonyl)phenyl)-2,4-dioxo-1,3,8-triazaspiro[4.5]decan-8-yl)-1-oxobutan-2-yl)-5-(trifluoromethyl)benzamide], for which the IC50 lay within 500 to 1000 nM.

With `Cc1cccc(C(=O)N[C@@H](C(=O)N2CCC3(CC2)C(=O)N(C)CN3c2ccc(C(N)=O)cc2)C(C)C)c1F` [Example 145, (R)—N-(1-(1-(4-Carbamoylphenyl)-3-methyl-4-oxo-1,3,8-triazaspiro[4.5]decan-8-yl)-3-methyl-1-oxobutan-2-yl)-2-fluoro-3-methylbenzamide], the IC50 was 500 to 1000 nM. Regarding `Cc1nc2cc(CN3C(=O)N(C)C(=O)C34CCN(C(=O)[C@H](NC(=O)c3cc(C(F)(F)F)ccc3F)C(C)C)CC4)ccn2n1` [Example 114, (R)-2-Fluoro-N-(3-methyl-1-(3-methyl-1-((2-methyl-[1,2,4]triazolo[1,5-a]pyridin-7-yl)methyl)-2,4-dioxo-1,3,8-triazaspiro[4.5]decan-8-yl)-1-oxobutan-2-yl)-5-(trifluoromethyl)benzamide], the IC50 was no less than 1000 nM.

On to `CC(C)[C@@H](NC(=O)c1cc(OC(F)(F)F)ccc1F)C(=O)N1CCC2(CC1)C(=O)N(C)C(=O)N2c1ccc(-c2nn[nH]n2)cc1` [Example 225, (R)—N-(1-(1-(4-(2H-Tetrazol-5-yl)phenyl)-3-methyl-2,4-dioxo-1,3,8-triazaspiro[4.5]decan-8-yl)-3-methyl-1-oxobutan-2-yl)-2-fluoro-5-(trifluoromethoxy)benzamide], for which the IC50 is less than 500 nM. For the molecule `CN1C(=O)N(c2ccc(=O)n(C)c2)C2(CCN(C(=O)[C@H](NC(=O)c3cc(C(F)(F)F)ccc3F)C3CCCC3)CC2)C1=O` [Example 24, (R)—N-(1-Cyclopentyl-2-(3-methyl-1-(1-methyl-6-oxo-1,6-dihydropyridin-3-yl)-2,4-dioxo-1,3,8-triazaspiro[4.5]decan-8-yl)-2-oxoethyl)-2-fluoro-5-(trifluoromethyl)benzamide], the IC50 is less than 500 nM. Under `COC(=O)c1ccc(N2C(=O)N(C)C(=O)C23CCN(C(=O)[C@H](NC(=O)c2cc(C(F)(F)F)ccc2F)C(C)C)CC3)cc1` [Example 221, (R)-Methyl-4-(8-(2-(2-fluoro-5-(trifluoromethyl)benzamido)-3-methylbutanoyl)-3-methyl-2,4-dioxo-1,3,8-triazaspiro[4.5]decan-1-yl)benzoate] stands less than 500 nM; under `CC(C)[C@@H](NC(=O)c1cc(C(F)(F)F)ccc1F)C(=O)N1CCC2(CC1)C(=O)N(C)C(=O)N2Cc1cccc(Cl)c1` [Example 104, (R)—N-(1-(1-(3-Chlorobenzyl)-3-methyl-2,4-dioxo-1,3,8-triazaspiro[4.5]decan-8-yl)-3-methyl-1-oxobutan-2-yl)-2-fluoro-5-(trifluoromethyl)benzamide], less than 500 nM; under `Cc1nc2cc(N3C(=O)N(C)C(=O)C34CCN(C(=O)[C@H](NC(=O)c3cc(C(F)(F)F)ccc3F)C(C)C)CC4)ccc2o1` [Example 246, (R)—N-(1-(1-(2-Methylbenzo[d]oxazol-5-yl)-3-methyl-2,4-dioxo-1,3,8-triazaspiro[4.5]decan-8-yl)-3-methyl-1-oxobutan-2-yl)-2-fluoro-5-(trifluoromethyl)benzamide], less than 500 nM. Then `CC(C)[C@@H](NC(=O)c1cc(C(F)(F)F)ccc1F)C(=O)N1CCC2(CC1)C(=O)N(C)C(=O)N2C` [Example 122, (R)—N-(1-(1,3-Dimethyl-2,4-dioxo-1,3,8-triazaspiro[4.5]decan-8-yl)-3-methyl-1-oxobutan-2-yl)-2-fluoro-5-(trifluoromethyl)benzamide], with no less than 1000 nM; and `CC(C)[C@@H](NC(=O)c1cc(C(F)(F)F)ccc1F)C(=O)N1CCC2(CC1)C(=O)N(C)C(=O)N2Cc1ccc2oc(=O)n(C)c2c1` [Example 105, (R)-2-Fluoro-N-(3-methyl-1-(3-methyl-1-((3-methyl-2-oxo-2,3-dihydrobenzo[d]oxazol-5-yl)methyl)-2,4-dioxo-1,3,8-triazaspiro[4.5]decan-8-yl)-1-oxobutan-2-yl)-5-(trifluoromethyl)benzamide], with less than 500 nM; and `CC(C)[C@@H](NC(=O)c1cc(C(F)(F)F)ccc1F)C(=O)N1CCC2(CC1)C(=O)N(CCN(C)C)C(=O)N2c1ccc(C(=O)O)cc1` [Example 237, (R)-4-(3-(2-(Dimethylamino)ethyl)-8-(2-(2-fluoro-5-(trifluoromethyl)benzamido)-3-methylbutanoyl)-2,4-dioxo-1,3,8-triazaspiro[4.5]decan-1-yl)benzoic Acid trifluoroacetic Acid Salt], with less than 500 nM. On to `CCc1cc(F)cc(C(=O)N[C@@H](C(=O)N2CCC3(CC2)C(=O)N(C)CN3c2ccccc2)[C@H](C)OC)c1` [Example 136, 3-Ethyl-5-fluoro-N-((2R,3S)-3-methoxy-1-(3-methyl-4-oxo-1-phenyl-1,3,8-triazaspiro[4.5]decan-8-yl)-1-oxobutan-2-yl)benzamide], for which the IC50 is less than 500 nM. Then `CCc1ccc(F)c(C(=O)N[C@@H](C(=O)N2CCC3(CC2)C(=O)N(C)CN3c2ccc(OC)cc2)C(C)C)c1` [Example 202, (R)-5-Ethyl-2-fluoro-N-(1-(1-(4-methoxyphenyl)-3-methyl-4-oxo-1,3,8-triazaspiro[4.5]decan-8-yl)-3-methyl-1-oxobutan-2-yl)benzamide], with less than 500 nM. Then `CC(C)[C@@H](NC(=O)c1cc(C(F)(F)F)ccc1F)C(=O)N1CCC2(CC1)C(=O)N(C)C(=O)N2c1ccc2oc(=O)n(C)c2c1` [Example 11, (R)-2-Fluoro-N-(3-methyl-1-(3-methyl-1-(3-methyl-2-oxo-2,3-dihydrobenzo[d]oxazol-5-yl)-2,4-dioxo-1,3,8-triazaspiro[4.5]decan-8-yl)-1-oxobutan-2-yl)-5-(trifluoromethyl)benzamide], with no less than 1000 nM; and `COc1ccc(N2CN(C)C(=O)C23CCN(C(=O)[C@H](NC(=O)c2cccc(C)c2)C(C)C)CC3)cc1` [Example 197, (R)—N-(1-(1-(4-Methoxyphenyl)-3-methyl-4-oxo-1,3,8-triazaspiro[4.5]decan-8-yl)-3-methyl-1-oxobutan-2-yl)-3-methylbenzamide], with less than 500 nM; and `CC(C)[C@@H](NC(=O)c1cc(C2CC2)ccc1F)C(=O)N1CCC2(CC1)C(=O)N(C)CN2c1ccc(C(=O)O)cc1` [Example 153, (R)-4-(8-(2-(5-Cyclopropyl-2-fluorobenzamido)-3-methylbutanoyl)-3-methyl-4-oxo-1,3,8-triazaspiro[4.5]decan-1-yl)benzoic Acid], with less than 500 nM. Take `Cc1cccc(C(=O)N[C@@H](C(=O)N2CCC3(CC2)C(=O)N(C)C(=O)N3c2ccccc2)C(C)C)c1F` [Example 3, (R)-2-Fluoro-3-methyl-N-(3-methyl-1-(3-methyl-2,4-dioxo-1-phenyl-1,3,8-triazaspiro[4.5]decan-8-yl)-1-oxobutan-2-yl)benzamide]: the IC50 is 500 to 1000 nM. `Cc1csc(CN2C(=O)N(C)C(=O)C23CCN(C(=O)[C@H](NC(=O)c2cc(C(F)(F)F)ccc2F)C(C)C)CC3)n1` [Example 117, (R)-2-Fluoro-N-(3-methyl-1-(3-methyl-1-((4-methylthiazol-2-yl)methyl)-2,4-dioxo-1,3,8-triazaspiro[4.5]decan-8-yl)-1-oxobutan-2-yl)-5-(trifluoromethyl)benzamide]: the IC50 is no less than 1000 nM.

By IC50 is commonly meant the concentration needed to halve the response being measured.
